Values after ≈ are worked out from the molar mass of the structure shown. Read-outs that look alike come from different tables or passages of the source.
Columns and labels:
Assay type in all cases: cell-based
[1] = test system: C. pneumoniae TW183, VR-2282; assay: Anti-mycoplasma MIC; settings: Chlamydia pneumoniae, read-out: Antimycoplasma activity (MIC) CP-TW-183^i
Method: (§1) The antimycoplasma activity was quantified using the […]. Retapamulin was used as a positive control to test the minimum inhibitory concentration of 3H-imidazo[4,5-C]pyridine pleuromutilin onium salt derivatives.
(§2) (1) Preparation of KM2 medium: Weigh 38.9 g of KM2 medium, add it to 800 mL of distilled water, boil to dissolve, sterilize under high pressure at 115° C. for 20 min, and set aside.
(§3) (2) Preparation of bacterial stock solution: Take 0.5 mL of Mhp-J^a, Mhp-LH^b, Mhr-BTS-7^c, MG-R^d, MS-WVU1853^e, MP-M129^f, CP-AR-39^g, CP-CWL-029^h, CP-TW-183^i, MH-PG-21^j, MG-G37^k cultured to the logarithmic phase and transfer it to 4.5 mL of KM2 liquid culture medium. When the culture medium turns yellow, divide each bacterium into 0.5 mL per tube and store it at −70° C. as bacterial stock solution.
(§4) (3) Determination of bacterial titer (color change unit, CCU): Take out the bacterial stock solution stored at −70° C., melt and balance to room temperature, add 0.18 mL KM2 medium to each well of the middle 4 rows of the 96-well plate (i.e. 4 parallels), take 0.02 mL and add it to the first column, dilute 10 times to 10^−11, and set up a negative control containing only KM2 medium (12th column). After sealing, put it in a 37° C. incubator and observe the results every day. The highest dilution at which the color of the medium changes is the CCU/mL of the strain.
(§5) Take an appropriate amount of seed bacterial solution and dilute it to 10^4 CCU/mL in turn according to its titer. Add drugs of each dilution in a 96-well plate in turn, and then add an equal amount of diluted bacterial solution. Set 200 μL of diluted mycoplasma bacterial solution as a positive control, 200 μL of KM2 liquid culture medium as a negative control, and set a solvent control group (10 μL of drug solvent+190 μL of mycoplasma bacterial solution). Each experiment is set up in 3 parallels. After all culture plates are sealed, they are cultured at 37° C., observed daily, and the final MIC value is recorded.

[2] = test system: M. genitalium G37, ATCC33530; assay: Anti-mycoplasma MIC; settings: Mycoplasmoides genitalium
Method: as §1, §2, §3, §4, §5

[3] = test system: M. hominis PG-21, ATCC23114; assay: Anti-mycoplasma MIC; settings: Metamycoplasma hominis
Method: as §1, §2, §3, §4, §5

[4] = test system: M. pneumoniae M129, ATCC29342; assay: Anti-mycoplasma MIC; settings: Mycoplasmoides pneumoniae
Method: as §1, §2, §3, §4, §5

[5] = test system: M. synoviae WVU1853, NCTC10124; assay: Anti-mycoplasma MIC; settings: Mycoplasmopsis synoviae
Method: as §1, §2, §3, §4, §5

[6] = test system: A549 Cells; assay: Cytotoxicity, Cell Counting Kit-8
Method: (§6) Cell Counting Kit-8 was used to evaluate the cytotoxicity of the compounds.
(§7) (4) Cell culture: HepG2, HEK293 and A549 cells were evenly dispersed in culture medium, seeded into 96-well plates, and cultured under appropriate environmental conditions to keep the cells completely attached to the well walls.
(§8) (5) Compound treatment: Add different concentrations of compounds I-8 and I-9 to each well (the concentrations are 0.78, 1.56, 3.13, 6.25, 12.5, 25, 50 and 100 μM, respectively, and perform 6 parallel experiments). Set up a blank control group and a normal control group. After incubation for 24 hours, observe the cell condition, which observed under a microscope.
(§9) (6) CCK-8 solution treatment: Add CCK-8 solution to each well and incubate for 4 hours to allow it to react with the cells.
(§10) (7) Absorbance determination: Use a full-wavelength scanning multifunctional reader, place the 96-well plate in the instrument, oscillate to mix to make the color evenly distributed, and measure the absorbance value at 490 nm.
(§11) (8) Data analysis: Based on the measured absorbance values, the cell survival rate at different concentrations can be calculated. The median cytotoxic concentration was used to evaluate the cytotoxicity of the compound to A549, HEK293 and HepG2 cells.

[7] = test system: HEK293 Cells; assay: Cytotoxicity, Cell Counting Kit-8
Method: as §6, §7, §8, §9, §10, §11

[8] = test system: HepG2 Cells; assay: Cytotoxicity, Cell Counting Kit-8
Method: as §6, §7, §8, §9, §10, §11

| Compound | MIC ([1]; C. pneumoniae TW183) | MIC ([2]; ATCC33530, M. genitalium G37, read-out: Antimycoplasma activity (MIC) MG-G37^k) | MIC ([3]; ATCC23114, M. hominis PG-21, read-out: Antimycoplasma activity (MIC) MH-PG-21^j) | MIC ([4]; ATCC29342, M. pneumoniae M129, read-out: Antimycoplasma activity (MIC) MP-M129^f) | MIC ([5]; NCTC10124, M. synoviae WVU1853, read-out: Antimycoplasma activity (MIC) MS-WVU1853^e) | CC50 ([6]; CCK-8, 24 hours incubation, read-out: CC50 A549 Cells) | CC50 ([7]; CCK-8, 24 hours incubation, read-out: CC50 HEK293 Cells) | CC50 ([8]; CCK-8, 24 hours incubation, read-out: CC50 HepG2 Cells) | MIC [1] | MIC ([2]; ATCC33530, read-out: Antimycoplasma activity (MIC) MG-G37^k) | MIC ([3]; ATCC23114, read-out: Antimycoplasma activity (MIC) MH-PG-21^j) | MIC ([4]; ATCC29342, read-out: Antimycoplasma activity (MIC) MP-M129^f) | MIC ([5]; NCTC10124, read-out: Antimycoplasma activity (MIC) MS-WVU1853^e) | CC50 ([6]; human, 24 h) | CC50 ([7]; human, 24 h) | CC50 ([8]; human, 24 h) |
| --- | --- | --- | --- | --- | --- | --- | --- | --- | --- | --- | --- | --- | --- | --- | --- | --- |
| C=C[C@]1(C)C[C@@H](OC(=O)CSc2nc3cc[n+](Cc4ccc(C)cc4)cc3[nH]2)[C@]2(C)[C@H](C)CC[C@]3(CCC(=O)[C@H]32)[C@@H](C)[C@@H]1O [Compound i, 5-(4-methylbenzyl)-2-((2-(((3aR,4R,5R,7S,8S,9R,9aS,12R)-8-hydroxy-4,7,9,12-tetramethyl-3-oxo-7-vinyldecahydro-4,9a-propancyclopenta[8]cyclo-5-yl)oxy)-2-oxoethyl)thio)-3H-imidazo[4,5-C]pyridine-5-ium] | 0.01 µg/mL | 0.03 µg/mL | 0.015 µg/mL | 0.008 µg/mL | 0.015 µg/mL | > 100 µM | 96.4 µM | > 100 µM | – | – | – | – | – | – | – | – |
| C=C[C@]1(C)C[C@@H](OC(=O)CS[C@@H]2C[C@H]3CC[C@@H](C2)N3C)[C@]2(C)[C@H](C)CC[C@]3(CCC(=O)[C@H]32)[C@@H](C)[C@@H]1O [Retapamulin, reference compound] | – | – | – | – | – | – | – | – | 0.03 µg/mL (≈ 0.0579 µM) | 0.03 µg/mL (≈ 0.0579 µM) | 0.25 µg/mL (≈ 0.483 µM) | 0.015 µg/mL (≈ 0.029 µM) | 2 µg/mL (≈ 3.86 µM) | 71.5 µM | 57.5 µM | 61.1 µM |
